The source made the active and inactive calls. No cut-off for these calls is given here.
Assays:
[1] = (§1) Cytotoxicity against human MCF7 ER positive, PR positive/negative,HER2 negative cells assessed as cell growth inhibition after 24 hrs by MTT assay; format: functional, cell-based; settings: MCF7, 24 h
MCF7 [2] = assay: as §1; format: functional, cell-based
[3] = Cytotoxicity against human MDA-MB-231 ER negative, PR negative,HER2 negative cells assessed as cell growth inhibition after 24 hrs by MTT assay; format: functional, cell-based; settings: MDA-MB-231, 24 h
[4] = Cytotoxicity against human HCT116 cells assessed as cell growth inhibition after 24 hrs by MTT assay; format: functional, cell-based; settings: HCT-116, 24 h
[5] = Cytotoxicity against human WI38 cells assessed as cell growth inhibition after 24 hrs by MTT assay; format: toxicity, cell-based, WI-38
MCF7 [6] = assay: Antiproliferative activity against human MCF7 cells assessed as reduction in colony formation at 8 to 16 nM after 21 days by crystal violet staining based clonogenic assay; format: functional, cell-based
Bos taurus = species on record: Bos taurus; assay: Inhibition of DAPI binding to calf thymus DNA at 10 to 50 uM measured at 460 nm by fluorescence spectroscopic method
MCF7 [7] = assay: Induction of DNA double strand breaks in human MCF7 cells assessed as increase in H2AX to gamma-H2AX ratio after 24 hrs by Western blot analysis; format: cell-based
MCF7 [8] = assay: Induction of DNA double strand breaks in human MCF7 cells assessed as increase in apoptotic nuclei after 24 hrs by TUNEL assay; format: cell-based
MCF7 [9] = assay: Induction of apoptosis in human MCF7 cells assessed as early apoptotic cells at 8 nM after 24 hrs by Annexin V-FITC/propidium iodide-dual staining based FACS analysis (reference value: 2.3%); format: functional
MCF7 [10] = assay: Induction of apoptosis in human MCF7 cells assessed as late apoptotic cells at 12 nM after 24 hrs by Annexin V-FITC/propidium iodide-dual staining based FACS analysis (reference value: 0.1%); format: functional
MCF7 [11] = assay: Induction of apoptosis in human MCF7 cells assessed as early apoptotic cells at 16 nM after 24 hrs by Annexin V-FITC/propidium iodide-dual staining based FACS analysis (reference value: 2.3%); format: functional
MCF7 [12] = assay: Induction of apoptosis in human MCF7 cells assessed as late apoptotic cells at 16 nM after 24 hrs by Annexin V-FITC/propidium iodide-dual staining based FACS analysis (reference value: 0.1%); format: functional
[13] = Induction of DNA damage-mediated apoptosis in human MCF7 cells assessed as upregulation of cytochrome c after 24 hrs by immunoblot analysis; format: cell-based
MCF7 [14] = assay: Induction of DNA damage-mediated apoptosis in human MCF7 cells assessed as cleavage of caspase-3 after 24 hrs by immunoblot analysis; format: cell-based
MCF7 [15] = assay: Induction of DNA damage-mediated apoptosis in human MCF7 cells assessed as increase in E2F1 expression in nuclear fraction after 24 hrs by immunoblot analysis; format: cell-based
MCF7 [16] = assay: Induction of DNA damage-mediated apoptosis in human MCF7 cells assessed as downregulation of HDAC1 after 24 hrs by DAPI staining based immunocytochemistry analysis; format: cell-based
MCF7 [17] = assay: Induction of DNA damage-mediated apoptosis in human MCF7 cells assessed as delocalization of HDAC3 from nuclear to cytoplasm at 8 to 16 nM after 24 hrs by DAPI staining based immunocytochemistry analysis; format: cell-based
MCF7 [18] = assay: Induction of DNA damage-mediated apoptosis in human MCF7 cells assessed as decrease in HDAC1 levels in nuclear fraction at 8 to 16 nM after 24 hrs by immunoblot analysis; format: cell-based
MCF7 [19] = assay: Induction of DNA damage-mediated apoptosis in human MCF7 cells assessed as decrease in HDAC2 levels in nuclear fraction at 8 to 16 nM after 24 hrs by immunoblot analysis; format: cell-based
MCF7 [20] = assay: Induction of DNA damage-mediated apoptosis in human MCF7 cells assessed as decrease in HDAC2 expression in cytoplasmic fraction at 8 to 16 nM after 24 hrs by immunoblot analysis; format: cell-based
MCF7 [21] = assay: Induction of DNA damage-mediated apoptosis in human MCF7 cells assessed as decrease in HDAC3 expression in nuclear fraction at 8 to 16 nM after 24 hrs by immunoblot analysis; format: cell-based
MCF7 [22] = assay: Antiproliferative activity against human MCF7 cells assessed as effect on cellular morphology after 24 hrs by phase contrast microscopic method; format: functional, cell-based
[23] = Cell cycle arrest in human MCF7 cells assessed as G2/M phase at 8 nM after 24 hrs by propidium iodide staining based FACS analysis (reference value: 28.3%); format: functional

In the case of `O=c1cc(OCc2ccccc2)c2ccc3ccccc3c2[nH]1`, the IC50 [1] is reported as 12 nM, the “growth inhibition (GI)” value (MCF7 [2]) is reported as “Dose-dependent effect” and the IC50 [3] is reported as 62.9 nM. For the same compound, the IC50 [4] was 44.1 nM, the IC50 at 24 h [5] was > 100000 nM and the Activity (MCF7 [6]) was “Active”. The inhibition (Bos taurus) was “Active”, the Activity (MCF7 [7]) was “Dose-dependent effect” and the Activity (MCF7 [8]) was “Dose-dependent effect”. The Activity (MCF7 [9]) was 10.9%, the Activity (MCF7 [10]) was 5.8% and the Activity (MCF7 [11]) was 43.5%. The Activity (MCF7 [12]) was 5.6%, the Activity [13] was “Dose-dependent effect” and the Activity (MCF7 [14]) was “Dose-dependent effect”. For the same compound, the Activity (MCF7 [15]) was “Active”, the Activity (MCF7 [16]) was “Dose-dependent effect” and the Activity (MCF7 [17]) was “Active”. For the same compound, the Activity (MCF7 [18]) was “Active”, the Activity (MCF7 [19]) was “Active” and the Activity (MCF7 [20]) was “Active”. The Activity (MCF7 [21]) was “Active”, the Activity (MCF7 [22]) was “Dose-dependent effect” and the Activity [23] was 19%.
